In US20030100494A1, “Nerve protective drugs” (priority 1999, published 2003):
Non-standard residues stand in square brackets, D forms with d. Residues, ends and D or L forms follow the SMILES beside them. dTrp(2-Me) = Cc1[nH]c2ccccc2c1C[C@@H](N)C(=O)O; d2Nal = N[C@H](Cc1ccc2ccccc2c1)C(=O)O

Columns and labels:
[1] = system: Rat hippocampal nerve cells; assay: ionomycin-induced death of cultured rat hippocampal nerve cells (WST-8 cell survival rate); details: for inhibition of cell death induced by ionomycin at a single concentration: each 0.1 μM, 3 μM ionomycin, FIGS. 6a and 6b
Protocol: The solution was used after dilution to predetermined concentrations with distilled water for injection (JP, Otsuka Pharmaceutical) containing 1 mg/mL of bovine serum albumin (SIGMA). Rat type ghrelin (Peptide Institute) was used after dilution to predetermined concentrations with water for injection containing 1 mg/mL of bovine serum albumin. Other reagents used were L-15 culture medium, D-MEM/F-12 culture medium, MEM culture medium, Neuro Basal culture medium, B-27 supplement, horse serum, newborn calf serum, L-glutamine (all of the foregoing products of GIBCO), L-cysteine, ionomycin, calf serum albumin, DNase I (all of the foregoing products of SIGMA), glucose, viable cell count determination reagent SF (all of the foregoing products of Nacalai tesque), and papain (Worthington Biochemical).
Animals used were fetal rats on the 20th fetal day gestated in Wistar/ST definitively pregnant rats (15-18 days pregnant, Japan SLC).
Rat hippocampal nerve cells were isolated in accordance with the method of Hatanaka et al. (Hatanaka, H. and Tsukui, H., Dev. Brain. Res. 30(1986)47). Brains were removed from Wistar/ST fetal rats (20 fetal days), and soaked in cold L-15 medium. The meninges were ablated under microscope, and the hippocampus was cut out. Hippocampal tissue was transferred into a test tube containing the L-15 medium, and the test tube was centrifuged for 3 minutes at 700 rpm. Then, the supernatant was removed, and phosphate buffer (pH 7.2) containing papain (0.5 mg/mL), bovine serum albumin (0.2 mg/mL), cysteine (0.2 mg/mL), glucose (5 mg/mL) and DNase I (0.01%) was added, followed by incubating the mixture for 15 minutes at 37° C. Then, horse serum was added, and the mixture was centrifuged for 3 minutes at 700 rpm. Then, the supernatant was removed, D-MEM/F-12 medium was added, and the cells were dispersed by pipetting. After centrifugation for 5 minutes at 700 rpm, the dispersed cells were redispersed in D-MEM/F-12 medium containing 5% newborn calf serum and 5% horse serum, and inoculated in a polyethyleneimine-coated 48-well culture plate (Nunc) at a rate of 4×10^5 cells/cm^2. The cells were cultured in a culture incubator (37° C., 5% CO2-95% air). On the 2nd day of culturing, the culture medium was replaced by Neuro Basal medium containing 2 mM of glutamine and B-27 supplement. Then, the medium was replaced at intervals of 4 days.
Cells on the 14th day of culturing were used in experiments. The culture medium was replaced by a B-27-free MEM medium, and the cells were incubated for 30 minutes. Then, a solvent (dimethyl sulfoxide) and a test compound were added, and the system was incubated for 30 minutes (procedure 1). Then, 3 μM of ionomycin was added, and the mixture was incubated for 30 minutes (procedure 2). The culture medium was washed, and replaced by Neuro Basal medium containing B-27 supplement, and the system was cultured for 18 hours (procedure 3). In examining the effect of post-treatment, the solvent and the test compound were not added in procedure 1, but added 30 minutes after replacement of the medium in procedure 3.

[2] = system: rat ischemia-reperfusion cerebral infarction models; assay: rat ischemia-reperfusion cerebral infarction model after transient obstruction of middle cerebral artery; type: in vivo
Protocol: Preventive and therapeutic effect of KP-102 in rat ischemia-reperfusion cerebral infarction models after transient obstruction of middle cerebral artery
The effect of the growth hormone secretion promoting substance was evaluated using ischemia-reperfusion cerebral infarction models, which are general pathological models of diseases involving degeneration or death of nerve cells, such as cerebral ischemia, cerebral infarction and cerebral edema. KP-102 was used as a typical example of the growth hormone secretion promoting substance.
KP-102 (synthetic product) was dissolved in physiological saline (JP) to a concentration of 24 μg/ml. Other reagents used were halothane (JP: Takeda Chem. Ind.), triphenyltetrazolium chloride (TTC, Nacalai tesque), Dulbecco PBS(−) (Nissui Pharmaceutical) and low viscosity dental impression silicone (XANTOPRENRL, imported by Hereus Dental Material, Osaka). A 1% TTC solution was prepared by dissolving TTC in an isotonic phosphate buffer solution (pH 7.4) which had been prepared by dissolving PBS(−) powder in distilled water.
Male Wistar rats (Charles River Japan, INC.), 9 weeks old and weighing about 300 g, were used as experimental animals.
Obstruction of the middle cerebral artery was performed in accordance with the method of Koizumi et al. (Jpn. J. Stroke (1986)8:1-8) and the method of Longa et al. (Stroke (1989)20:84-91). Anesthesia was performed with 2% halothane in a 30% oxygen/70% nitrous oxide mixed gas. A cannula for administration of a test material had been inserted into the right femoral vein, and the other end of the cannula delivered to the poll. After several hours or more, the animals were anesthetized again, and set in a supine position. A median incision of the neck was made, and connective tissues around the right common carotid artery, the internal carotid artery, and the external carotid artery were ablated. The distal end of the external carotid artery and the external carotid artery were ligated with a suture, and blood flow in the common carotid artery was blocked with a clip. The following procedure was performed, with measures for prevention of bleeding being taken: A small incision was made in the external carotid artery, and a plug comprising a 5 mm front end of a surgical 4-0 nylon thread coated with dental silicone was inserted toward the internal carotid artery as far as a site where a slight resistance was felt. As a result, the middle cerebral artery (hereinafter referred to as MCA) was occluded, at its point of origin, with the plug. The plug was fixed in the internal carotid artery with a clip. The incision wound was closed and anesthesia was stopped to awake the animals. Anesthesia was performed again 70 minutes after MCA occlusion, the plug was detached 75 minutes later to restore blood flow in MCA, and the end of the external carotid artery proximal to the incision site was closed for prevention of bleeding. Blood flow in the common carotid artery was restored 10 minutes later. The incision site of the skin was closed with a Michel needle, and the animals were recovered from anesthesia.
The cannula for administration of the test material was connected to a free moving device (TCS2-21, Tsumura). […]

[3] = influence on blood pressure and heart rate; details: in vivo
[4] = KP-102 total 0.16 mg/kg i.v., 72 hours after reperfusion, FIG. 1

For `CCC(CC)C(=O)N1CCC[C@@H]1C(=O)N[C@@H](Cc1ccc2ccccc2c1)C(=O)NCC(O)CN` (stereo partly drawn) [S-39100, N-(3-amino-2-hydroxypropyl)-2(S)-[1-(2-ethylbutyryl)pyrrolidine-2(R)-carbonylamino]-3-naphthalen-2-yl-propionamide], the “inhibition of cell death induced by ionomycin at a single concentration” value (“inhibition … at a single concentration” below) [1] was “clear action of inhibiting cell death”.
With `Cc1[nH]c2ccccc2c1C[C@@H](NC(=O)[C@@H](N)Cc1c[nH]cn1)C(=O)N[C@@H](C)C(=O)N[C@@H](Cc1c[nH]c2ccccc12)C(=O)N[C@H](Cc1ccccc1)C(=O)N[C@@H](CCCCN)C(N)=O` [hexarelin, L-histidyl-2-methyl-D-tryptophyl-L-alanyl-L-tryptophyl-D-phenylalanyl-L-lysineamide, reference compound] (H-H[dTrp(2-Me)]AW[dF]K-NH2) the “inhibition … at a single concentration” value [1] was “clear action of inhibiting cell death”.
In the case of `NCC(O)CNC(=O)[C@@H](Cc1ccc2ccccc2c1)NC(=O)CCN1C(=O)c2ccccc2CCc2ccccc21` (stereo partly drawn) [S-37555, N-[1(R)-(3-amino-2-hydroxy-propylcarbamoyl)-2-yl-ethyl]-3-(6-oxo-11,12-dihydro-6H-dibenzo[b,f]azocinn-5-yl)-propionamide], the “inhibition … at a single concentration” value [1] is reported as “clear action of inhibiting cell death”.
With `CC(C)(C)C(=O)N1CCC[C@H]1C(=O)N[C@H](Cc1ccc2ccccc2c1)C(=O)NCC(O)CN` (stereo partly drawn) [S-38855, N-(3-amino-2-hydroxypropyl)-2(R)-[1-(2,2-dimethylpropionyl)pyrrolidine-2(S)-carbonylamino]-3-naphthalen-2-yl-propionamide] the “inhibition … at a single concentration” value [1] was “clear action of inhibiting cell death”.
In the case of `C[C@H](NC(=O)[C@@H](Cc1ccc2ccccc2c1)NC(=O)[C@@H](C)N)C(=O)N[C@@H](Cc1c[nH]c2ccccc12)C(=O)N[C@H](Cc1ccccc1)C(=O)N[C@@H](CCCCN)C(N)=O` [KP-102, D-alanyl-3-(2-naphthalenyl)-D-alanyl-L-alanyl-L-tryptophyl-D-phenylalanyl-L-lysineamide] (H-[dA][d2Nal]AW[dF]K-NH2), the “cerebral infarct size, cortex” value [2, 4] is reported as “effect of shrinking the infarct was observed”, the “cerebral infarct size, medulla” value [2, 4] is reported as “effect of shrinking the infarct was observed” and the “percent cerebral infarction volume for the entire cerebrum” value ([2]; vs control group, KP-102 total 0.16 mg/kg i.v. infusion beginning 30 minutes after MCA occlusion, 72 hours after reperfusion, FIG. 1, P<0.05 Mann-Whitney) is reported as “significantly smaller”. For the same compound, the percent edema ([2]; vs control group, KP-102 total 0.16 mg/kg i.v., 72 hours after reperfusion, FIG. 2, no significant differences, P=0.087) was “tendency toward suppression”, the “score of neurologic symptoms” value ([2]; vs control group, KP-102 total 0.16 mg/kg i.v., after reperfusion, normal score 33 points, FIG. 3, P<0.05) was “significantly higher” and the “influence on blood pressure” value [3] was “does not influence”. The “influence on heart rate” value [3] was “does not influence”, the “inhibition of cell death, compound applied after ionomycin treatment” value ([1]; applied 30 minutes after replacement of the ionomycin-treated culture medium, FIG. 4b) was “cell death inhibiting action was also confirmed” and the “inhibition of cell death induced by 3 μM of ionomycin, compound applied 30 minutes before ionomycin” value ([1]; concentrations of 0.01 to 1 μM, dose-dependent, FIG. 4a) was “inhibited cell death”.
